Reference: patent publication US20190100549A1, “FLAVONOIDE-TYPE COMPOUNDS BEARING AN O-RHAMNOSYL RESIDUE” (Universitaet Hamburg, priority 2016, published 2019)

How the values were obtained:
Assay type in all cases: cell-based
[1] = tested on: HaCaT cells; assay: Glucose uptake (2-NBDG) in HaCaT keratinocytes; parameters: key to Measure 1 / Measure 2 / Measure 3 / Mean: total green object integrated intensity, GCU×μm2×Well; settings: +2NBDG 50 μM, 24 h; for Measure 1 / Measure 2 / Measure 3: HaCaT cells, fluorescence; for RFU specific: mean minus control; for Mean: mean of triplicate measurements; for % Glucose uptake: Rosiglitazone 80 μM = 100%
Description: HaCaT cells (5×10^4) were seeded in 96-well black plates and incubated for 24 h. Then, medium was removed and the cells cultivated in OptiMEM, labeled with 50 μM 2-NBDG (2-[N-(7-nitrobenz-2-oxa-1,3-diazol-4-yl) amino]-2-deoxy-D-glucose and treated with the test substances or the positive control, Rosiglitazone, for 24 h. Medium was removed and the wells were carefully washed with PBS and incubated in PBS (100l/well). Finally the fluorescence was measured using the Incucyte FLR software, the data were analyzed by the total green object integrated intensity (GCU×μm2×Well) of the imaging system IncuCyte HD (Essen BioScience). The fluorescence of Rosiglitazone is taken as 100% of glucose uptake, and the glucose uptake was calculated as (% Glucose uptake)=100(T−B)/(R−B), where T (treated) is the fluorescence of test substance-treated cells, B (Basal) is the fluorescence of 2-NBDG cells and […] is the fluorescence of cells treated with Rosiglitazone.

[2] = tested on: NF-κB; assay: NF-κB activity in NIH3T3-KBF-Luc cells stimulated with TNFα (luciferase); settings: for % Activation: TNFα alone = 100
Description: NIH3T3-KBF-Luc cells were stably transfected with the KBF-Luc plasmid (Sancho (2003) Mol Pharmacol 63:429-438), which contains three copies of NF-κB binding site (from major histocompatibility complex promoter), fused to a minimal simian virus 40 promoter driving the luciferase gene. Cells (1×10^4 for NIH3T3-KBF-Luc) were seeded the day before the assay on 96-well plate. Then the cells were treated with the test substances for 15 min and then stimulated with 30 ng/ml of TNFα. After 6 h, the cells were washed twice with PBS and lysed in 50 μl lysis buffer containing 25 mM Tris-phosphate (pH 7.8), 8 mM MgCl2, 1 mM DTT, 1% Triton X-100, and 7% glycerol during 15 min at RT in a horizontal shaker. Luciferase activity was measured using a GloMax 96 microplate luminometer (Promega) following the instructions of the luciferase assay kit (Promega, Madison, Wis., USA). […] The experiments for each concentration of the test items were done in triplicate wells.

[3] = tested on: STAT3; assay: STAT3 activity in HeLa-STAT3-luc cells stimulated with IFN-γ (luciferase); settings: +IFNγ 25 U/ml; for RLU 1 / RLU 2 / RLU 3: HeLa-STAT3-luc cells; for RLU 1: replicate well 1; for RLU 2: replicate well 2; for RLU 3: replicate well 3; for RLU specific: mean minus control; for Mean: mean of triplicate wells; for % Activation: IFNγ alone = 100% activation
Description: HeLa-STAT3-luc cells were stably transfected with the plasmid 4xM67 pTATA TK-Luc. Cells (20×10^3 cells/ml) were seeded 96-well plate the day before the assay. Then the cells were treated with the test substances for 15 min and then stimulated with IFN-γ 25 IU/ml. After 6 h, the cells were washed twice with PBS and lysed in 50 μl lysis buffer containing 25 mM Tris-phosphate (pH 7.8), 8 mM MgCl2, 1 mM DTT, 1% Triton X-100, and 7% glycerol during 15 min at RT in a horizontal shaker. Luciferase activity was measured using GloMax 96 microplate luminometer (Promega) following the instructions of the luciferase assay kit (Promega, Madison, Wis., USA). […] The experiments for each concentration of the test items were done in triplicate wells.

Compound	Measure 1 ([1]; 25 μM test substance)	Measure 2 ([1]; 25 μM test substance)	Measure 3 ([1]; 25 μM test substance)	RFU specific ([1]; 25 μM test substance)	Mean ([1]; 25 μM test substance)	% Glucose uptake ([1]; 25 μM test substance)	Measure 1 ([1]; 50 μM test substance)	Measure 2 ([1]; 50 μM test substance)	Measure 3 ([1]; 50 μM test substance)	RFU specific ([1]; 50 μM test substance)	Mean ([1]; 50 μM test substance)	% Glucose uptake ([1]; 50 μM test substance)	RLU 1 ([2]; 10 μM + 30 ng/ml TNFα)	RLU 2 ([2]; 10 μM + 30 ng/ml TNFα)	RLU 3 ([2]; 10 μM + 30 ng/ml TNFα)	RLU MEAN ([2]; 10 μM + 30 ng/ml TNFα)	RLU specific ([2]; 10 μM + 30 ng/ml TNFα)	% Activation ([2]; 10 μM + 30 ng/ml TNFα)	RLU 1 ([2]; 25 μM + 30 ng/ml TNFα)	RLU 2 ([2]; 25 μM + 30 ng/ml TNFα)	further results
Chrysin-5-O-α-L-rhamnoside [CR2]	427937	431593	390512	410367 RFU	416681	47.2%	771478	1100390	923151	925359 RFU	931673	106.5%	156600 RLU	160140 RLU	151070 RLU	155937 RLU	132573 RLU	101.7%	170390 RLU	179220 RLU	RLU 3 ([2]; 25 μM + 30 ng/ml TNFα): 163490 RLU; RLU MEAN ([2]; 25 μM + 30 ng/ml TNFα): 171033 RLU; RLU specific ([2]; 25 μM + 30 ng/ml TNFα): 147670 RLU; % Activation ([2]; 25 μM + 30 ng/ml TNFα): 113.2%
Diosmetin-5-O-α-L-rhamnoside [DR2]	632398	940240	197738	583811 RFU	590125	67.2%	2958363	1297231	2493030	2243227 RFU	2249541	258.2%	211150 RLU	215320 RLU	213260 RLU	213243 RLU	189880 RLU	145.6%	245900 RLU	241550 RLU	RLU 1 ([3]; 25 μM test substance): 12137 RLU; RLU 2 ([3]; 25 μM test substance): 10269 RLU; RLU 3 ([3]; 25 μM test substance): 9275 RLU; RLU specific ([3]; 25 μM test substance): 8553 RLU; Mean ([3]; 25 μM test substance): 10560 RLU; % Activation ([3]; 25 μM test substance): 68.33%; RLU 1 ([3]; 50 μM test substance): 13005 RLU; RLU 2 ([3]; 50 μM test substance): 10547 RLU; RLU 3 ([3]; 50 μM test substance): 10143 RLU; RLU specific ([3]; 50 μM test substance): 9224 RLU; Mean ([3]; 50 μM test substance): 11232 RLU; % Activation ([3]; 50 μM test substance): 73.69%; RLU 3 ([2]; 25 μM + 30 ng/ml TNFα): 234880 RLU; RLU MEAN ([2]; 25 μM + 30 ng/ml TNFα): 240777 RLU; RLU specific ([2]; 25 μM + 30 ng/ml TNFα): 217413 RLU; % Activation ([2]; 25 μM + 30 ng/ml TNFα): 166.7%
COc1ccc(-c2cc(=O)c3c(O)cc(O)cc3o2)cc1O [Diosmetin, 5,7-Trihydroxy-4′-methoxyflavone, reference compound]	–	–	–	–	–	–	–	–	–	–	–	–	–	–	–	–	–	–	–	–	% Activation ([3]; 50 μM test substance): 50.00%
